In patent US5573908A, “Adrenergic receptor as a proto-oncogene” (Duke University, priority 1993, dated 1996):
Several values for one entry are separate records, joined by “and”; a condition that tells them apart may be missing. Equal entries are not always repeated.

Legend:
Assay type in all cases: cell-based
[1] = system: NIH 3T3 fibroblasts transfected with α1B ADR; experiment: Focus formation in NIH 3T3 fibroblasts transfected with α1B-ADR c-DNA; conditions: NIH 3T3 transfected with α1B ADR; 10 μM NE supplemented daily, 5% FBS (Table 1)
[2] = NE stimulated PI hydrolysis in RAT-1 cell lines transfected with vector alone; conditions: 40 min, 10 μM NE, 40 minute, two clones, read-out: NE Stimulated PI Hydrolysis Rmax
Description: In cell lines expressing the α1B -ADR mutant, NE induced a 900 to 1000% increase in inositol phosphates (Table 3); this level of PI hydrolysis was only seen in cells expressing the wild type receptor with a two fold higher level of receptor expression. […] The α1B -ADR, appearing on the surface of RAT-1 fibroblasts following transfection, therefore, functionally couples to PI hydrolysis in these cells. Whether receptor coupling to PLC actually mediates the α1B -ADR's ability to induce malignant transformation in these cells, however, remains speculative. Coupling of this receptor to alternate G proteins or effector systems may be responsible for triggering uncontrolled cell proliferation.
In Table 3, RAT-1 fibroblast cell lines transfected with expression vector alone or derived from transformed foci (α1B ADR or α1B ADR mutant) were selected with G418 (300 μg/ml). Ligand binding was performed on membranes prepared from two clones of each in accordance with known techniques (S. Cotecchia et al., Life Sci. 37, 2389 (1986)). For saturation binding analysis, [^125 ] HEAT concentrations ranged from 10 to 500 pM, nonspecific binding was determined using 1 μM prazosin; in competition experiments, the radioligand concentration was 100 pM. Ligand binding parameters were determined using computerized iterative nonlinear regression analysis (P. Munson, Methods in Enzymol. 92, 5432 (1983)). […]

[3] = system: RAT-1 fibroblasts transfected with α1B -ADR c-DNA; experiment: Focus formation in RAT-1 fibroblasts transfected with α1B-ADR c-DNA
Experimental: Transfection was carried out as follows: RAT-1 fibroblasts were seeded at a density of 2×10^5 cells in Dulbecco's modified Eagle's medium (DMEM) (Gibco) containing 5% fetal bovine serum (FBS) in 100 mm dishes. […] After 16 hours, the DNA precipitate was removed, the cells washed and grown for 24 hours in complete medium. Cells were split 1:5, allowed to attach overnight and then cultured in DMEM with 5% FBS alone, supplemented with 10 μM norepinephrine (NE) or G418 (300 μg/ml). Dishes were supplemented with NE daily, and fed every 3 days with fresh medium.

[4] = system: RAT-1 fibroblasts transfected with α1B -ADR mutant; experiment: Focus formation in RAT-1 fibroblasts transfected with α1B-ADR mutant c-DNA
Experimental: Transfection was carried out as follows: RAT-1 fibroblasts were seeded at a density of 2×10^5 cells in Dulbecco's modified Eagle's medium (DMEM) (Gibco) containing 5% fetal bovine serum (FBS) in 100 mm dishes. Cells were grown overnight, then transfected with 10 μg of DNA (expression vector alone [pZIP-NeoSV(X)1] or containing the α1B-ADR, α1B -ADR mutant [discussed in Example 3 below] or activated Ha-ras c-DNAs) by calcium phosphate precipitation (B. Cullen, Methods Enzymol. 152, 684 (1987)). The α1B -ADR used herein was the hamster α1B -ADR described in S. Cotecchia et al., Proc. Natl. Acad. Sci. USA 85, 7159-7163 (1988). After 16 hours, the DNA precipitate was removed, the cells washed and grown for 24 hours in complete medium. Cells were split 1:5, allowed to attach overnight and then cultured in DMEM with 5% FBS alone, supplemented with 10 μM norepinephrine (NE) or G418 (300 μg/ml). Dishes were supplemented with NE daily, and fed every 3 days with fresh medium.
^1 Cells were cultured for 3 weeks in the presence or absence of 10
μM norepinephrine (NE), supplemented daily, in medium containing 5%
FBS. The number of transformed foci were scored after 4 weeks of culture.
Results represent the average duplicate determinations from two
independent experiments which agreed within 25%; nd = not determined. […]
growth, the number of foci was scored. […]

NC[C@H](O)c1ccc(O)c(O)c1 [NE, norepinephrine]
Foci No. +NE [1]: 85 | activation at 10 µM [2]: 0% | Agonist-induced foci as share of transfected clones ([3]; RAT-1, relative to number of G418 resistant colonies (40-60/dish)): 15-25% | Foci No. +NE ([3]; RAT-1 transfected with α1B ADR, 10 μM NE supplemented daily, 5% FBS, initially transfected cells (Table 1)): 8 | Foci No. +NE ([3]; focus derived RAT-1 cell lines, α1B ADR, 10 μM NE, 3 weeks of growth, two clones (Table 2)): 75 and 80 | Foci No. +NE ([4]; RAT-1 transfected with α1B ADR mutant, 10 μM NE supplemented daily, 5% FBS, initially transfected cells (Table 1)): 11 | Foci No. +NE ([4]; focus derived RAT-1 cell lines, α1B ADR mutant, 10 μM NE, 3 weeks of growth, two clones (Table 2)): > 500
